The values below come from patent US20210094973A1, “HETEROCYCLIC COMPOUNDS” (Hoffmann-La Roche Inc., priority 2019, published 2021).

The structures appear in SMILES notation.

The assay has as its target T1, MAGL (Homo sapiens, UniProt Q99685).
T1 sequence (Q99685 1-303): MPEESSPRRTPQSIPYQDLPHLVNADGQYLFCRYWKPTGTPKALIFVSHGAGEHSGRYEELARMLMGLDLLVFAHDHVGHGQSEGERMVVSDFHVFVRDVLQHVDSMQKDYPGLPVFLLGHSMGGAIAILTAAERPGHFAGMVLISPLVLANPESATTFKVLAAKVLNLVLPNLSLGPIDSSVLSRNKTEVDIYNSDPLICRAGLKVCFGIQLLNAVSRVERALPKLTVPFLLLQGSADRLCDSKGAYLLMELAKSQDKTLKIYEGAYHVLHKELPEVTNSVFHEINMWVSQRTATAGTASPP
Description: 2-AG assay (MAGL inhibitory activity, hydrolysis of 2-arachidonoylglycerol followed by mass spectrometry). The format is biochemical. The settings on record: 15 min preincubation at RT, 8 μM 2-arachidonoylglycerol, 30 min at RT, arachidonic acid by MS. The procedure: Compounds were profiled for MAGL inhibitory activity by determining the enzymatic activity by following the hydrolysis of the natural substrate 2-arachidonoylglycerol (2-AG) resulting in arachidonic acid, which can be followed by mass spectrometry. This assay is hereinafter abbreviated “2-AG assay”.
The 2-AG assay was carried out in 384 well assay plates (PP, Greiner Cat #784201) in a total volume of 20 μL. Compound dilutions were made in 100% DMSO (VWR Chemicals 23500.297) in a polypropylene plate in 3-fold dilution steps to give a final concentration range in the assay from 12.5 μM to […]. 0.25 μL compound dilutions (100% DMSO) were added to 9 μL MAGL in assay buffer (50 mM TRIS (GIBCO, 15567-027), 1 mM EDTA (Fluka, 03690-100 mL), 0.01% (v/v) Tween. After shaking, the plate was incubated for 15 min at RT. To start the reaction, 10 μL 2-arachidonoylglycerol in assay buffer was added. The final concentrations in the assay was […] and 8 μM 2-arachidonoylglyerol. After shaking and 30 min incubation at RT, the reaction was quenched by the addition of 40 μL of ACN containing 4 μM of d8-arachidonic acid. The amount of arachidonic acid was traced by an online SPE system (Agilent Rapidfire) coupled to a triple quadrupole mass spectrometer (Agilent 6460). A C18 SPE cartridge (G9205A) was used in an ACN/water liquid setup. The mass spectrometer was operated in negative electrospray mode following the mass transitions 303.1→259.1 for arachidonic acid and 311.1→267.0 for d8-arachidonic acid. The activity of the compounds was calculated based on the ratio of intensities [arachidonic acid/d8-arachidonic acid].
What is called IC50 is the point on the concentration scale where inhibition reaches its midpoint. The low end stands for greater potency, the high end for weaker potency. `CC1(C)CCc2cc(C3CN(C(=O)N4CC[C@@H]5OCC(=O)N[C@@H]5C4)C3)ccc2O1` [Example 10, (4aR,8aS)-6-(3-(2,2-Dimethylchroman-6-yl)azetidine-1-carbonyl)hexahydro-2H-pyrido[4,3-b][1,4]oxazin-3(4H)-one] had an IC50 of 6 nM.
The figure for `CC(C)COc1ccc(C2CN(C(=O)N3CC[C@@H]4OCC(=O)N[C@@H]4C3)C2)cc1` [Example 11, (4aR,8aS)-6-(3-(4-Isobutoxyphenyl)azetidine-1-carbonyl)hexahydro-2H-pyrido[4,3-b][1,4]oxazin-3(4H)-one] is 1.5 nM; for `CC(C)(Oc1ccc(C2CN(C(=O)N3CC[C@@H]4OCC(=O)N[C@@H]4C3)C2)cc1)C(F)(F)F` [Example 12, (4aR,8aS)-6-[3-[4-(2,2,2-Trifluoro-1,1-dimethyl-ethoxy)phenyl]azetidine-1-carbonyl]-4,4a,5,7,8,8a-hexahydropyrido[4,3-b][1,4]oxazin-3-one] it is 0.3 nM.
The figure for `O=C1CO[C@H]2CCN(C(=O)N3CC(c4ccc(OC5CCCC5)cc4)C3)C[C@H]2N1` [Example 13, (4aR,8aS)-6-(3-(4-(Cyclopentyloxy)phenyl)azetidine-1-carbonyl)hexahydro-2H-pyrido[4,3-b][1,4]oxazin-3(4H)-one] is 0.6 nM; for `CC1(C)CCOc2ccc(C3CN(C(=O)N4CC[C@@H]5OCC(=O)N[C@@H]5C4)C3)cc21` [Example 14, (4aR,8aS)-6-(3-(4,4-Dimethylchroman-6-yl)azetidine-1-carbonyl)hexahydro-2H-pyrido[4,3-b][1,4]oxazin-3(4H)-one] it is 26.4 nM.
The figure for `O=C1CO[C@H]2CCN(C(=O)N3CC(c4ccc(OCC5CC5)cc4)C3)C[C@H]2N1` [Example 15, (4aR,8aS)-6-(3-(4-(Cyclopropylmethoxy)phenyl)azetidine-1-carbonyl)hexahydro-2H-pyrido[4,3-b][1,4]oxazin-3(4H)-one] is 8.7 nM; for `O=C1CO[C@H]2CCN(C(=O)N3CC(c4nc(-c5ccc(Cl)cc5Cl)no4)C3)C[C@H]2N1` [Example 16, (4aR,8aS)-6-[3-[3-(2,4-Dichlorophenyl)-1,2,4-oxadiazol-5-yl]azetidine-1-carbonyl]-4,4a,5,7,8,8a-hexahydropyrido[4,3-b][1,4]oxazin-3-one] it is 24.5 nM.
`Cn1ncc2cc(C3CN(C(=O)N4CC[C@@H]5OCC(=O)N[C@@H]5C4)C3)ccc21` [Example 17, (4aR,8aS)-6-(3-(1-Methyl-1H-indazol-5-yl)azetidine-1-carbonyl)hexahydro-2H-pyrido[4,3-b][1,4]oxazin-3(4H)-one] returned a concentration for half-maximal inhibition (IC50) of 168 nM.
The figure for `O=C1CO[C@H]2CCN(C(=O)N3CC(c4noc(-c5ccc(Cl)cc5Cl)n4)C3)C[C@H]2N1` [Example 18, (4aR,8aS)-6-(3-(5-(2,4-Dichlorophenyl)-1,2,4-oxadiazol-3-yl)azetidine-1-carbonyl)hexahydro-2H-pyrido[4,3-b][1,4]oxazin-3(4H)-one] is 39.2 nM; for `O=C1CO[C@H]2CCN(C(=O)N3CC(c4cccc(OC(F)(F)F)c4)C3)C[C@H]2N1` [Example 19, (4aR,8aS)-6-(3-(3-(Trifluoromethoxy)phenyl)azetidine-1-carbonyl)hexahydro-2H-pyrido[4,3-b][1,4]oxazin-3(4H)-one] it is 44.1 nM; for `O=C1CO[C@H]2CCN(C(=O)N3CCC(c4ccn(-c5ccc(F)cc5)n4)CC3)C[C@H]2N1` [Example 20, (4aR,8aS)-6-(4-(1-(4-Fluorophenyl)-1H-pyrazol-3-yl)piperidine-1-carbonyl)hexahydro-2H-pyrido[4,3-b][1,4]oxazin-3(4H)-one] it is 147 nM.
In the case of `O=C1CO[C@H]2CCN(C(=O)N3CC(OCc4c(Cl)cccc4Cl)C3)C[C@H]2N1` [Example 21, (4aR,8aS)-6-(3-((2,6-Dichlorobenzyl)oxy)azetidine-1-carbonyl)hexahydro-2H-pyrido[4,3-b][1,4]oxazin-3(4H)-one], the IC50 came out at 27.8 nM.
Consider `O=C1CO[C@H]2CCN(C(=O)N3CC(OCc4cc(Cl)cc(Cl)c4)C3)C[C@H]2N1` [Example 22, (4aR,8aS)-6-(3-((3,5-Dichlorobenzyl)oxy)azetidine-1-carbonyl)hexahydro-2H-pyrido[4,3-b][1,4]oxazin-3(4H)-one], for which inhibition was half-maximal at 13.4 nM (IC50).
The figure for `Cc1c(CC2CCN(C(=O)N3CC[C@@H]4OCC(=O)N[C@@H]4C3)CC2)cncc1C1CC1` [Example 23, (4aR,8aS)-6-(4-((5-Cyclopropyl-4-methylpyridin-3-yl)methyl)piperidine-1-carbonyl)hexahydro-2H-pyrido[4,3-b][1,4]oxazin-3(4H)-one] is 119 nM.
The figure for `O=C1CO[C@H]2CCN(C(=O)N3CCC(OCc4ccc(C(F)(F)F)cc4)CC3)C[C@H]2N1` [Example 24, (4aR,8aS)-6-(4-((4-(Trifluoromethyl)benzyl)oxy)piperidine-1-carbonyl)hexahydro-2H-pyrido[4,3-b][1,4]oxazin-3(4H)-one] is 62.1 nM.
The figure for `O=C1CO[C@H]2CCN(C(=O)N3CCC(OCc4ccc(F)cc4Cl)CC3)C[C@H]2N1` [Example 25, (4aR,8aS)-6-(4-((2-Chloro-4-fluorobenzyl)oxy)piperidine-1-carbonyl)hexahydro-2H-pyrido[4,3-b][1,4]oxazin-3(4H)-one] is 72.5 nM; for `O=C1CO[C@H]2CCN(C(=O)N3CCC(OCc4ccc(C(F)(F)F)cc4Cl)CC3)C[C@H]2N1` [Example 26, (4aR,8aS)-6-(4-((2-chloro-4-(trifluoromethyl)benzyl)oxy)piperidine-1-carbonyl)hexahydro-2H-pyrido[4,3-b][1,4]oxazin-3(4H)-one] it is 5.2 nM.
`COc1cc(COC2CN(C(=O)N3CC[C@@H]4OCC(=O)N[C@@H]4C3)C2)ccc1F` [Example 30, (4aR,8aS)-6-(3-((4-Fluoro-3-methoxybenzyl)oxy)azetidine-1-carbonyl)hexahydro-2H-pyrido[4,3-b][1,4]oxazin-3(4H)-one] yielded an IC50 of 77.3 nM.
The figure for `O=C1CO[C@H]2CCN(C(=O)N3CC(OCc4ccc(S(F)(F)(F)(F)F)cc4)C3)C[C@H]2N1` [Example 31, (4aR,8aS)-6-(3-((4-(Pentafluoro-16-sulfanyl)benzyl)oxy)azetidine-1-carbonyl)hexahydro-2H-pyrido[4,3-b][1,4]oxazin-3(4H)-one] is 5.8 nM; for `O=C1CO[C@H]2CCN(C(=O)N3CC(OCc4ccccc4OC(F)(F)F)C3)C[C@H]2N1` [Example 32, (4aR,8aS)-6-(3-((2-(Trifluoromethoxy)benzyl)oxy)azetidine-1-carbonyl)hexahydro-2H-pyrido[4,3-b][1,4]oxazin-3(4H)-one] it is 22.5 nM; for `O=C1CO[C@H]2CCN(C(=O)N3CC(OCc4ccc(Cl)cc4OC(F)(F)F)C3)C[C@H]2N1` [Example 33, (4aR,8aS)-6-(3-((4-Chloro-2-(trifluoromethoxy)benzyl)oxy)azetidine-1-carbonyl)hexahydro-2H-pyrido[4,3-b][1,4]oxazin-3(4H)-one] it is 5.9 nM.
The figure for `Cc1ccc(C(F)(F)F)cc1COC1CN(C(=O)N2CC[C@@H]3OCC(=O)N[C@@H]3C2)C1` [Example 34, (4aR,8aS)-6-(3-((2-Methyl-5-(trifluoromethyl)benzyl)oxy)azetidine-1-carbonyl)hexahydro-2H-pyrido[4,3-b][1,4]oxazin-3(4H)-one] is 8 nM.
The figure for `O=C1CO[C@H]2CCN(C(=O)N3CCC(Cc4ccc(C(F)(F)F)c(-c5ccccc5)c4)CC3)C[C@H]2N1` [Example 35, (4aR,8aS)-6-[4-[[3-Phenyl-4-(trifluoromethyl)phenyl]methyl]piperidine-1-carbonyl]-4,4a,5,7,8,8a-hexahydropyrido[4,3-b][1,4]oxazin-3-one] is 4.6 nM; for `O=C1CO[C@H]2CCN(C(=O)N3CCC(Cc4ccc(C(F)(F)F)cc4C(F)(F)F)CC3)C[C@H]2N1` [Example 36, (4aR,8aS)-6-[4-[[2,4-bis(Trifluoromethyl)phenyl]methyl]piperidine-1-carbonyl]-4,4a,5,7,8,8a-hexahydropyrido[4,3-b][1,4]oxazin-3-one] it is 9.4 nM; for `Cc1cc(CC2CCN(C(=O)N3CC[C@@H]4OCC(=O)N[C@@H]4C3)CC2)cnc1C(F)(F)F` [Example 37, (4aR,8aS)-6-(4-((5-Methyl-6-(trifluoromethyl)pyridin-3-yl)methyl)piperidine-1-carbonyl)hexahydro-2H-pyrido[4,3-b][1,4]oxazin-3(4H)-one] it is 31.7 nM.
